According to patent US6555574B1, “4-oxybenzopyran derivative” (Nissan Chemical Industries, Ltd., priority 1999, dated 2003):

melting point [°C]	SMILES
125.2 to 125.5	COc1ccc(CC(=O)Nc2cc3c(cc2[N+](=O)[O-])OC(C)(C)[C@H](O)[C@H]3OCCc2ccccc2)cc1 [Synthesis example 6, Trans-3,4-dihydro-2,2-dimethyl-6-(4-methoxyphenyl)acetylamino-7-nitro-4-(2-phenylethoxy)-2H-1-benzoypyran-3-ol]
178 to 178.6	COc1ccc(CC(=O)Nc2cc3c(cc2[N+](=O)[O-])OC(C)(C)[C@H](O)[C@H]3Oc2ccccc2)cc1 (relative stereo) [Synthesis example 7, Trans-3,4-dihydro-2,2-dimethyl-6-(4-methoxyphenyl)acetylamino-7-nitro-4-phenyloxy-2H-1-benzopyran-3-ol]
117.8 to 119.1	COc1ccc(CC(=O)Nc2cc3c(cc2[N+](=O)[O-])OC(C)(C)[C@H](O)[C@H]3OCc2ccccc2)cc1 [Synthesis example 8]
115 to 116	CCCO[C@H]1c2cc(NC(=O)Cc3ccc(OC)cc3)c([N+](=O)[O-])cc2OC(C)(C)[C@@H]1O (relative stereo) [Synthesis example 4, (3R*, 4S*)-3,4-dihydro-2,2-dimethyl-4-propoxy-6-(4-methoxyphenylacetylamino)-7-nitro-2H-1-benzopyran-3-ol]
